From PubChem BioAssay (NCI) come the findings set out here.

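The compound was tested at five concentrations on cells cultured in 96-well plates, with a 48-hour exposure period. Abbreviation: GI50, concentration required for 50% inhibition of growth. TGI marks complete inhibition of growth.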

Some test systems named below: SNB-75 CNS; OVCAR-3 ovarian; SK-MEL-2 melanoma; OVCAR-5 ovarian; OVCAR-4 ovarian; CCRF-CEM leukemia; SK-MEL-5 melanoma; MALME-3M melanoma; MDA-MB-435; EKVX NSCLC.
What all share (test): NCI-60 cell line screen, 48 h

Consider `C=CC(C)(C)n1cc(C2=C(O)C(=O)C(c3cn(C(C)(C)C=C)c4ccccc34)=C(O)C2=O)c2ccccc21`, for which the TGI in the assay on SNB-75 CNS is 7.77 µM; with OVCAR-3 ovarian, 4.48 µM; in the assay with SK-MEL-2 melanoma, 4.22 µM; with OVCAR-5 ovarian, 4.45 µM; in the assay on OVCAR-4 ovarian, 6.92 µM; with CCRF-CEM leukemia it was over 100 µM. Moreover, the TGI in the assay on SK-MEL-5 melanoma is 4.88 µM; in the assay on MALME-3M melanoma, 11.1 µM; in the assay with MDA-MB-435, 14.7 µM; in the assay with EKVX NSCLC, 14 µM.
Turning to `FC(F)(F)c1ccc(-c2nn3ncccc3c2-c2ccnc(Nc3ccc4c(c3)OCCO4)n2)cc1`, the GI50 in the assay with SNB-75 CNS was over 8.49 µM; with OVCAR-3 ovarian, 11.6 µM; with SK-MEL-2 melanoma, 11.6 µM; in the assay with OVCAR-5 ovarian, 7.11 µM; with OVCAR-4 ovarian it was 10.2 µM; in the assay on CCRF-CEM leukemia, 10.8 µM. Further, the GI50 in the assay on SK-MEL-5 melanoma is 6.42 µM; with MALME-3M melanoma it was 7.29 µM; in the assay with MDA-MB-435, 10.7 µM; in the assay on EKVX NSCLC, 4.02 µM. For the same compound, the TGI with SNB-75 CNS is over 25 µM; with OVCAR-3 ovarian it was over 25 µM; in the assay on SK-MEL-2 melanoma, over 25 µM; with OVCAR-5 ovarian, over 23.2 µM; in the assay with OVCAR-4 ovarian, over 25 µM; with CCRF-CEM leukemia, over 25 µM. Moreover, the TGI with SK-MEL-5 melanoma, in the assay on MALME-3M melanoma, in the assay on MDA-MB-435 and in the assay on EKVX NSCLC was over 25 µM in each case.
Take `CCn1cc(/C=C2\Oc3cc(OCC#N)ccc3C2=O)c2cc(OC)ccc21`: the GI50 was 0.527 µM in the assay on SNB-75 CNS; 0.127 µM in the assay on OVCAR-3 ovarian; 0.807 µM in the assay on SK-MEL-2 melanoma; 1.41 µM in the assay with OVCAR-5 ovarian; 11.2 µM in the assay with OVCAR-4 ovarian; 0.113 µM in the assay with CCRF-CEM leukemia. Further, the GI50 in the assay on SK-MEL-5 melanoma was 0.204 µM; with MDA-MB-435, 0.0764 µM; in the assay on EKVX NSCLC, 1.44 µM. Also, the TGI in the assay with OVCAR-3 ovarian is 4.94 µM; in the assay on SK-MEL-2 melanoma it was over 68.5 µM; in the assay on OVCAR-5 ovarian, over 100 µM; in the assay with OVCAR-4 ovarian, over 100 µM; in the assay on CCRF-CEM leukemia, over 100 µM; in the assay with SK-MEL-5 melanoma it was 4.17 µM. Besides, the TGI was over 70.7 µM with MALME-3M melanoma, 0.263 µM in the assay on MDA-MB-435 and over 100 µM with EKVX NSCLC.
As for `O=C(NN1C(=O)CSC1c1cccc(Cl)c1)C(O)c1ccccc1` (stereo unspecified), the GI50 is 65 µM with SNB-75 CNS; 33.8 µM with OVCAR-3 ovarian; over 100 µM in the assay with SK-MEL-2 melanoma; over 100 µM in the assay with OVCAR-5 ovarian; 66.7 µM in the assay with OVCAR-4 ovarian; over 100 µM with CCRF-CEM leukemia. Besides, the GI50 with SK-MEL-5 melanoma is over 100 µM; in the assay with MALME-3M melanoma it was over 100 µM; in the assay with MDA-MB-435, over 100 µM; in the assay on EKVX NSCLC, 64.5 µM. The TGI in the assay with SNB-75 CNS, in the assay on OVCAR-3 ovarian, with SK-MEL-2 melanoma, in the assay with OVCAR-5 ovarian, with OVCAR-4 ovarian and with CCRF-CEM leukemia was over 100 µM each time. In addition, the TGI in the assay on SK-MEL-5 melanoma, in the assay with MALME-3M melanoma, in the assay on MDA-MB-435 and in the assay with EKVX NSCLC was over 100 µM each time.
With `CCSc1ccc([C@@H]2[C@@H](O)C(=O)N2c2cc(OC)c(OC)c(OC)c2)cc1`, the GI50 in the assay with SNB-75 CNS was under 0.011 µM; with OVCAR-3 ovarian, under 0.01 µM; in the assay on SK-MEL-2 melanoma, 0.0221 µM; in the assay on OVCAR-5 ovarian it was 0.0526 µM; in the assay on OVCAR-4 ovarian, 0.0674 µM; in the assay on CCRF-CEM leukemia, under 0.0171 µM. Moreover, the GI50 in the assay on SK-MEL-5 melanoma is under 0.0118 µM; in the assay with MALME-3M melanoma it was 15.8 µM; with MDA-MB-435, under 0.01 µM; in the assay on EKVX NSCLC, 0.0226 µM. For the same compound, the TGI was 65.1 µM with SNB-75 CNS; 0.548 µM in the assay on OVCAR-3 ovarian; 28.4 µM in the assay on SK-MEL-2 melanoma; over 100 µM with OVCAR-5 ovarian; 75.8 µM in the assay with OVCAR-4 ovarian; over 100 µM with CCRF-CEM leukemia. Moreover, the TGI in the assay with SK-MEL-5 melanoma was 0.433 µM; in the assay on MALME-3M melanoma it was 50.4 µM; in the assay on MDA-MB-435 it was under 0.0112 µM; in the assay on EKVX NSCLC it was 53 µM.
As to `CC(C)(C)[Si](C)(C)OC1[C@@H](CNC(N)=O)O[C@@H](n2cnc3c(NC(=O)Nc4ccccc4)ncnc32)[C@H]1O[Si](C)(C)C(C)(C)C` (stereo partly specified), the GI50 with SNB-75 CNS was 3.73 µM; with OVCAR-3 ovarian it was 1.12 µM; in the assay with SK-MEL-2 melanoma, 7.09 µM; in the assay with OVCAR-5 ovarian it was 6.65 µM; with OVCAR-4 ovarian, 2.48 µM; in the assay on CCRF-CEM leukemia it was 1.06 µM. In addition, the GI50 in the assay with SK-MEL-5 melanoma was 6.82 µM; in the assay on MALME-3M melanoma, 5.19 µM; with MDA-MB-435, 2.21 µM; in the assay on EKVX NSCLC it was 1.94 µM. The TGI with SNB-75 CNS stood at 10.9 µM; with OVCAR-3 ovarian, 2.31 µM; in the assay on SK-MEL-2 melanoma, 14.9 µM; in the assay with OVCAR-5 ovarian it was 13.5 µM; in the assay on OVCAR-4 ovarian, 10.1 µM; in the assay with CCRF-CEM leukemia it was 2.48 µM. For the same compound, the TGI with SK-MEL-5 melanoma came out at 13.5 µM; in the assay with MALME-3M melanoma, 12.5 µM; in the assay on MDA-MB-435 it was 8.51 µM; in the assay on EKVX NSCLC, 8.02 µM.
Regarding `NC(=O)c1cccnc1`, the GI50 was over 100 µM in the assay with SNB-75 CNS; over 100 µM in the assay on OVCAR-3 ovarian; over 100 µM with SK-MEL-2 melanoma; over 100 µM in the assay on OVCAR-5 ovarian; over 100 µM in the assay on OVCAR-4 ovarian; 5.99 µM in the assay with CCRF-CEM leukemia. Further, the GI50 in the assay with MALME-3M melanoma, in the assay with MDA-MB-435 and in the assay on EKVX NSCLC was over 100 µM in each case. For the same compound, the TGI with SNB-75 CNS, with OVCAR-3 ovarian, in the assay with SK-MEL-2 melanoma, in the assay with OVCAR-5 ovarian, in the assay with OVCAR-4 ovarian and with CCRF-CEM leukemia was over 100 µM throughout. Also, the TGI with MALME-3M melanoma, in the assay on MDA-MB-435 and in the assay on EKVX NSCLC was over 100 µM in each case.
In the case of `O=[N+]([O-])c1cc([As](Br)c2ccc(O)c([N+](=O)[O-])c2)ccc1O`, the TGI turned out to be 3.62 µM in the assay on SNB-75 CNS; 3.53 µM with OVCAR-3 ovarian; 2.59 µM in the assay with SK-MEL-2 melanoma; 4.2 µM in the assay on OVCAR-5 ovarian; 3.28 µM in the assay with OVCAR-4 ovarian; 0.436 µM with CCRF-CEM leukemia. The TGI in the assay with SK-MEL-5 melanoma is 3.1 µM; with MALME-3M melanoma it was 2.38 µM; in the assay on MDA-MB-435 it was 3.51 µM; in the assay on EKVX NSCLC, 3.86 µM.
Regarding `COc1ccc(C2=NC(=O)NC2c2ccc(OC)cc2)cc1` (stereo unspecified), the GI50 in the assay on SNB-75 CNS is 5.39 µM; in the assay on OVCAR-3 ovarian it was 10.8 µM; in the assay on SK-MEL-2 melanoma, 5.34 µM; in the assay on OVCAR-5 ovarian, 25.9 µM; in the assay with OVCAR-4 ovarian, 31.5 µM; in the assay with CCRF-CEM leukemia, 38.9 µM. Besides, the GI50 was 3.29 µM in the assay with SK-MEL-5 melanoma, 4.91 µM with MALME-3M melanoma, 1.73 µM in the assay on MDA-MB-435 and 13 µM in the assay on EKVX NSCLC. In addition, the TGI with SNB-75 CNS was 65 µM; in the assay with OVCAR-3 ovarian, 35.3 µM; in the assay on SK-MEL-2 melanoma it was 52.8 µM; with OVCAR-5 ovarian, over 100 µM; in the assay with OVCAR-4 ovarian it was over 100 µM; in the assay with CCRF-CEM leukemia it was over 100 µM. The TGI in the assay on SK-MEL-5 melanoma is 14.2 µM; in the assay with MALME-3M melanoma it was 68.3 µM; with MDA-MB-435 it was 4.56 µM; with EKVX NSCLC it was 64.6 µM.
As for `C=C1C(=O)OC2C1CCC(C)C1(O)C=CC(=O)C21C` (stereo unspecified), the TGI in the assay with SNB-75 CNS, with OVCAR-3 ovarian, with SK-MEL-2 melanoma, in the assay on OVCAR-4 ovarian, in the assay with CCRF-CEM leukemia and with SK-MEL-5 melanoma was over 10 µM each time. Moreover, the TGI in the assay with MALME-3M melanoma, with MDA-MB-435 and in the assay with EKVX NSCLC was over 10 µM each time.
As for `O=C1c2cccnc2-c2nc(-c3cccnc3)cc3c2c1nc1ccccc13`, the GI50 was 2.34 µM with SNB-75 CNS; 18 µM in the assay with SK-MEL-2 melanoma; 12.2 µM in the assay with OVCAR-5 ovarian; 5.07 µM with OVCAR-4 ovarian; 5.23 µM in the assay on CCRF-CEM leukemia; 1.55 µM with SK-MEL-5 melanoma. In addition, the GI50 is 17.6 µM in the assay with MALME-3M melanoma, 5.58 µM in the assay on MDA-MB-435 and 10.6 µM in the assay with EKVX NSCLC. The TGI is 6.91 µM in the assay with SNB-75 CNS; 33.8 µM with SK-MEL-2 melanoma; 30.1 µM in the assay with OVCAR-5 ovarian; 19.8 µM in the assay with OVCAR-4 ovarian; over 100 µM with CCRF-CEM leukemia; 3.46 µM in the assay with SK-MEL-5 melanoma. Further, the TGI with MALME-3M melanoma was found to be 32.4 µM; in the assay on MDA-MB-435, 32 µM; with EKVX NSCLC, 32.7 µM.
On to `Cc1ccc(S(=O)(=O)c2nc(-c3ccccc3)oc2S(C)(=O)=O)cc1`, for which the GI50 with SNB-75 CNS is 6.39 µM; in the assay on OVCAR-3 ovarian, 1.86 µM; in the assay with SK-MEL-2 melanoma, 3.4 µM; in the assay on OVCAR-5 ovarian it was 2.12 µM; with OVCAR-4 ovarian, 1.92 µM; with CCRF-CEM leukemia, 2.83 µM. Besides, the GI50 in the assay on MALME-3M melanoma was 1.9 µM; in the assay with MDA-MB-435, 2.11 µM; with EKVX NSCLC, 6.08 µM. The TGI in the assay with SNB-75 CNS stood at 18 µM; with OVCAR-3 ovarian, 3.35 µM; in the assay on SK-MEL-2 melanoma, 14.1 µM; with OVCAR-5 ovarian, 5.28 µM; in the assay with OVCAR-4 ovarian, 3.72 µM; in the assay with CCRF-CEM leukemia, 8.16 µM. For the same compound, the TGI with MALME-3M melanoma was 3.68 µM; in the assay with MDA-MB-435, 4.58 µM; in the assay on EKVX NSCLC, 19.3 µM.
